# Test results taken from patent EP1077967B1, “BIPHENYL OXO-ACETIC ACIDS USEFUL IN THE TREATMENT OF INSULIN RESISTANCE AND HYPERGLYCEMIA” (Wyeth, priority 1998, dated 1999).
# Counter-ions that a name gives are not always drawn.
# Biological target: T1, Human recombinant PTP1B (Homo sapiens, UniProt P18031)
# T1 construct: made in house
# T1 sequence (P18031 1-435): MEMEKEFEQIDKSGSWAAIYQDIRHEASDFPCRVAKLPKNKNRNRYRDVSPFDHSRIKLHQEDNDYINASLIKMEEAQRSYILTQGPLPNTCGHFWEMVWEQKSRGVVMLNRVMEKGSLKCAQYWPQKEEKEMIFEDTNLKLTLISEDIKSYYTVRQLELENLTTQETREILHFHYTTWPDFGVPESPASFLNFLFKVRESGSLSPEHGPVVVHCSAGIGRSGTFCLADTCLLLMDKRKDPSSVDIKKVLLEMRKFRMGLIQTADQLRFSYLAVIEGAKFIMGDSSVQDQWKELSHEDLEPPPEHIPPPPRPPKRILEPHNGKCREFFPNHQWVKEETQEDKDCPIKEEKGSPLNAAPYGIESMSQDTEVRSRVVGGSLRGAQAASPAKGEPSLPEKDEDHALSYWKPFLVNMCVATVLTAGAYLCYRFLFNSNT
# Test: Inhibition of tri-phosphorylated insulin receptor dodecaphosphopeptide dephosphorylation by hPTP1B (malachite green)
# Type: biochemical
# Conditions: not given
row,Compound,IC50 [nM]
1,"O=C(c1ccccc1)c1oc2ccccc2c1-c1ccc(-c2ccc(O[C@H](Cc3ccccc3)C(=O)O)c([N+](=O)[O-])c2)cc1 [Example 66, (2R)-2-[4'-(2-Benzoyl-benzofuarn-3-yl)-3-nitro-biphenyl-4-yloxy]-3-phenyl-propionic acid]",788
2,"O=C(O)[C@@H](Cc1ccccc1)Oc1ccc(-c2ccc(-c3c(Cc4ccccc4)oc4ccccc34)cc2)cc1[N+](=O)[O-] [Example 68, (2R)-2-[4'-(2-Benzyl-benzofuarn-3-yl)-3-nitro-biphenyl-4-yloxy]-3-phenyl-propionic acid]",231

# Same assay, conditions: compound at 1 uM
row,Compound,change of PTP1B activity (percent of phosphatase control)
1,"O=C(O)[C@@H](Cc1ccccc1)Oc1ccc(-c2ccc(-c3nc4cccnc4n3Cc3ccccc3)cc2)cc1 [Example 69, (2R)-2-[4'-(3-Benzyl-3H-imidazol[4,5-b]pyridin-2-yl)-biphenyl-4-yloxy]-3-phenyl-propionic acid sodium salt]",-20 (1 uM)

# Same assay, conditions: compound at 2.5 uM; read-out: change of PTP1B activity (percent of phosphatase control)
row,inhibition at 2.5 µM [%],Compound
1,36,"COC(=O)[C@H](Cc1ccccc1)Oc1ccc(-c2ccc(-c3c(Cc4ccccc4)oc4ccccc34)cc2)cc1 [Example 23, (2S)-2-[4'-(2-Benzyl-benzofuran-3-yl)-biphenyl-4-yloxy]-3-phenyl-propionic acid methyl ester]"

# Same assay, conditions: recombinant PTP1B, dodecaphosphopeptide substrate
row,Compound,IC50 [nM]
1,"O=C(O)C(Cc1ccccc1)Oc1ccc(-c2ccc(-c3c(Cc4nccs4)sc4ccccc34)cc2)cc1 (centres unmarked) [Example 30, 3-Phenyl-2-[4'-(2-thiazole-2-ylmethyl-benzo[b]thiophene-3-yl)-biphenyl-4-yloxy]-propionic acid]",1160
2,"O=C(O)[C@H](Cc1ccccc1)Oc1ccc(-c2ccc(-c3c(Cc4ccccc4)oc4cccnc34)cc2)cc1 [Example 31, (2S)-2-[4'-(2-Benzyl-furo[2,3]pyridin-3-yl)-biphenyl-4-yloxy]-3-phenyl-propionic acid]",590
3,"O=C(O)[C@@H](Cc1ccccc1)Oc1ccc(-c2ccc(-c3c(Cc4ccccn4)sc4ccccc34)cc2)cc1 [Example 32, (2R)-3-phenyl-2-[4'-(2-pyridin-2-ylmethyl-benzo[b]thiophene-3-yl)-biphenyl-4-yloxy]-propionic acid sodium salt]",1510
4,"O=C(O)[C@@H](Cc1ccccc1)Oc1ccc(-c2ccc(-c3c(Cc4ccccn4)sc4ccccc34)cc2)cc1 [Example 33, (2R)-3-phenyl-2-[4'-(2-pyridin-2-ylmethyl-benzo[b]thiophene-3-yl)-biphenyl-4-yloxy]-propionic acid]",1550
5,"Oc1ccc(-c2ccc(-c3c(Cc4ccccc4)sc4ccccc34)cc2)cc1Br [Example 34, 4'-(2-Benzyl-benzo[b]thiophen-3-yl)-3-bromo-biphenyl-4-ol]",1070
6,"Oc1c(Br)cc(-c2ccc(-c3c(Cc4ccccc4)sc4ccccc34)cc2)cc1Br [Example 35, 4'-(2-Benzyl-benzo[b]thiophen-3-yl)-3,5-dibromo-biphenyl-4-ol]",454
7,"O=C(O)COc1c(Br)cc(-c2ccc(-c3c(Cc4ccccc4)sc4ccccc34)cc2)cc1Br [Example 39, [4'-(2-Benzyl-benzo[b]thiophene-3-yl)-3,5-dibromo-biphenyl-4-yloxy]acetic acid]",105
8,"O=C(O)COc1ccc(-c2ccc(-c3c(Cc4ccccc4)sc4ccccc34)cc2)cc1Br [Example 40, [4'-(2-Benzyl-benzo[b]thiophene-3-yl)-3-bromo-biphenyl-4-yloxy]-acetic acid]",362
9,"O=C(O)[C@H](CCc1ccccc1)Oc1c(Br)cc(-c2ccc(-c3c(Cc4ccccc4)sc4ccccc34)cc2)cc1Br [Example 41, (2S)-2-[4'-(2-Benzyl-benzo[b]-thiophen-3-yl)-3,5-dibromo-biphenyl-4-yloxy]-4-phenyl-butyric acid]",290
10,"O=C(O)[C@@H](CCN1C(=O)c2ccccc2C1=O)Oc1c(Br)cc(-c2ccc(-c3c(Cc4ccccc4)sc4ccccc34)cc2)cc1Br [Example 43, (2R)-2-[4'-(2-Benzyl-benzo[b]-thiophen-3-yl)-3,5-dibromo-biphenyl-4-yloxy]-4-(1,3-dioxo-1,3-dihydro-isoindol-2-yl)-butyric acid]",44
11,"COC(=O)[C@@H](CCNC(=O)c1ccccc1C(=O)O)Oc1c(Br)cc(-c2ccc(-c3c(Cc4ccccc4)sc4ccccc34)cc2)cc1Br [Example 44, N-{(3R)-3-[4'-(2-benzyl-benzo[b]thiophen-3-yl)-3,5-dibromo-biphenyl-4-yloxy]-3-methoxycarbonyl-propyl]-phthalamic acid]",54
12,"O=C(O)c1ccccc1C(=O)NCC[C@@H](Oc1c(Br)cc(-c2ccc(-c3c(Cc4ccccc4)sc4ccccc34)cc2)cc1Br)C(=O)O [Example 45, N-{(3R)-3-[4'-(2-benzyl-benzo[b]thiophen-3-yl)-3,5-dibromo-biphenyl-4-yloxy]-3-carboxy-propyl]-phthalamic acid]",181
13,"O=C(O)C(Cc1ccccc1)Oc1ccc(-c2ccc(-c3c(Cc4ccccc4)sc4ccccc34)cc2)cc1-c1ccc(Cl)cc1 (centres unmarked) [Example 46, (2R')-2-[4-(2-benzyl-benzo[b]thiophene-3-yl)-4""-chloro-[1,1':3',1""]terphenyl-4'-yloxy]-3-phenyl-propionic acid]",52
14,"O=C(O)[C@H](CCc1ccccc1)Oc1ccc(-c2ccc(-c3c(Cc4ccccc4)oc4ccccc34)cc2)cc1 [Example 47, (2S)-2-[4'-(2-benzyl-benzofuran-3-yl)-biphenyl-4-yloxy]-4-phenyl-butyric acid]",225
15,"O=C(O)[C@H](Cc1ccccc1)Oc1c(Br)cc(-c2ccc(-c3c(Cc4ccccc4)oc4ccccc34)cc2)cc1Br [Example 49, (2S)-2-[4'-(2-benzyl-benzofuran-3-yl)-3,5-dibromo-biphenyl-4-yloxy]-3-phenyl-propionic acid]",38
16,"O=C(O)[C@H](Cc1ccccc1)Oc1ccc(-c2ccc(-c3c(Cc4ccccc4)oc4ccccc34)cc2)cc1Br [Example 50, (2S)-2-[4'-(2-benzyl-benzofuran-3-yl)-3-bromo-biphenyl-4-yloxy]-3-phenyl-propionic acid]",56

# The remaining lines, values ahead:
row,IC50 [nM],Compound
1,54,"CC(C)C[C@@H](Oc1c(Br)cc(-c2ccc(-c3c(Cc4ccccc4)oc4ccccc34)cc2)cc1Br)C(=O)O [Example 51, (2R)-2-[4'-(2-benzyl-benzofuran-3-yl)-3,5-dibromo-biphenyl-4-yloxy]-4-methyl-pentanoic acid]"
2,52,"CCCCC(Oc1c(Br)cc(-c2ccc(-c3c(Cc4ccccc4)oc4ccccc34)cc2)cc1Br)C(=O)O (centres unmarked) [Example 52, 2-[4'-(2-benzyl-benzofuran-3-yl)-3,5-dibromo-biphenyl-4-yloxy]-hexanoic acid]"
3,133,"CC[C@H](Oc1c(Br)cc(-c2ccc(-c3c(Cc4ccccc4)oc4ccccc34)cc2)cc1Br)C(=O)O [Example 53, (2S)-2-[4'-(2-benzyl-benzofuran-3-yl)-3,5-dibromo-biphenyl-4-yloxy]-butyric acid]"
4,23,"CCCCCC[C@H](Oc1c(Br)cc(-c2ccc(-c3c(Cc4ccccc4)oc4ccccc34)cc2)cc1Br)C(=O)O [Example 54, (2S)-2-[4'-(2-benzyl-benzofuran-3-yl)-3,5-dibromo-biphenyl-4-yloxy]-octanoic acid]"
5,47,"COc1ccc(-c2cc(-c3ccc(-c4c(Cc5ccccc5)sc5ccccc45)cc3)cc(Br)c2OCC(=O)O)cc1OC [Example 56, [4-(2-benzyl-benzo[b]-thiophen-3-yl)-5'-bromo-3"",4""-dimethoxy[1,1';3',1""-terphenyl]-4'-yloxy]-acetic acid]"
6,28,COc1cccc(-c2cc(-c3ccc(-c4c(Cc5ccccc5)sc5ccccc45)cc3)cc(Br)c2OCC(=O)O)c1 [Example 57]
7,25,COc1cccc(-c2cc(-c3ccc(-c4c(Cc5ccccc5)sc5ccccc45)cc3)cc(-c3cccc(OC)c3)c2OCC(=O)O)c1 [Example 58]
8,80,COc1ccc(-c2cc(-c3ccc(-c4c(Cc5ccccc5)sc5ccccc45)cc3)ccc2OCC(=O)O)cc1 [Example 59]
9,71,COc1ccc(-c2cc(-c3ccc(-c4c(Cc5ccccc5)sc5ccccc45)cc3)ccc2OCC(=O)O)cc1OC [Example 60]
10,100,COc1cc(-c2cc(-c3ccc(-c4c(Cc5ccccc5)sc5ccccc45)cc3)ccc2OCC(=O)O)cc(OC)c1OC [Example 61]
11,105,O=C(O)COc1ccc(-c2ccc(-c3c(Cc4ccccc4)sc4ccccc34)cc2)cc1-c1ccccc1 [Example 62]
12,369,"O=C(O)c1ccc(COc2ccc(-c3ccc(-c4c(Cc5ccccc5)oc5ccccc45)cc3)cc2)cc1 [Example 63, 4-[4'-(2-benzyl-benzofuran-3-yl)-biphenyl-4-yloxymethyl]-benzoic acid]"
13,512,"Cc1sc(Cc2ccccc2)c(-c2ccc(-c3ccc(O[C@H](Cc4ccccc4)C(=O)O)cc3)cc2)c1C [Example 64, (2R)-2-[4'-(2-Benzyl-4,5-dimethyl-thiophen-3-yl)-biphenyl-4-yloxy]-3-phenyl-propionic acid]"
14,74,"Cc1cc(-c2ccc(-c3c(Cc4ccccc4)oc4ccccc34)cc2)cc(C)c1O[C@H](Cc1ccccc1)C(=O)O [Example 65, (2R)-2-[4'-(2-Benzyl-benzofuarn-3-yl)-3,5-dimethyl-biphenyl-4-yloxy]-3-phenyl-propionic acid]"
15,103,"O=C(O)C(Cc1ccccc1)Oc1ccc(-c2ccc(-c3c(C(O)c4ccccc4)oc4ccccc34)cc2)cc1[N+](=O)[O-] [Example 67, (2R)-2-{4'-[2-(Hydroxy-phenyl-methyl)-benzofuarn-3-yl)-3-nitro-biphenyl-4-yloxy]-3-phenyl-propionic acid]"
